Measured values published in patent publication US20240317746A1, “CRYSTALLINE FORMS OF AN AZETIDINE PARP1 INHIBITOR” (XinThera, Inc., priority 2023, published 2024).

Test: Stability relationship study (slurry turnover of Form II)
Format: physicochemical
Protocol: Form II was prepared via heating starting material to 220° C. in DSC pans. Then, about 15 mg of Form II was stirred in 0.5 mL of selected solvent at desired temperatures for 2 and 5 days. Solid samples were collected by filtration and characterized by XRPD.

C[C@@H]1[C@@H](Oc2ccc(C(=O)NC3CC3)nc2)CN1Cc1cnc2cc(Cl)c(=O)[nH]c2c1 [Freebase Form II, 5-(((2R,3S)-1-((7-chloro-6-oxo-5,6-dihydro-1,5-naphthyridin-3-yl)methyl)-2-methylazetidin-3-yl)oxy)-N-cyclopropylpicolinamide]
Slurry turnover output (XRPD) Day 2 (ACN, 80° C.): Form I + II | Slurry turnover output (XRPD) Day 5 (ACN, 80° C.): Form I | Slurry turnover output (XRPD) Day 2 (Acetone, 50° C.): Form I | Slurry turnover output (XRPD) Day 2 (Acetone, RT): Form I | form after slurry in selected solvents (XRPD) (stirred at desired temperatures (RT to 80° C.) for 2 and 5 days): converted to Form I at all conditions
